We go through two compounds from article PMC2375326, “In vitro evaluation of amino acid prodrugs of novel antitumour 2-(4-amino-3-methylphenyl)benzothiazoles” (British Journal of Cancer, 2002).

The test system of data set [1] is CYP1A1 protein expression in HCT 116 cells. As to the kind of experiment: Western blot of CYP1A1 protein, HCT 116 lysates. Type of data set: cell-based, human. As for the experimental part: Whole cell lysates were prepared for examination of CYP1A1 protein expression from untreated MCF-7, IGROV-1 and HCT 116 cultures and following exposure of cells to compounds 1, 2, 2a, 2b, 3, 3a, 3b, 4, 4a and 4b. Following protein determination (n=3, [Bradford, 1976]) and addition of sample buffer, samples were boiled at 95°C for 5 min and solubilised proteins (50 μg) were separated by sodium dodecyl sulphate (SDS) polyacrylamide gel (10%) electrophoresis. Proteins were electroblotted to polyvinylidene difluoride (PVDF) membranes and probed for CYP1A1 protein with polyclonal antiserum specific for human CYP1A1/1A2 (Gentest Corporation). Secondary antibody was conjugated to alkaline phosphatase, and CYP1A1 was detected following brief (<10 min) incubation with bromochloroindolyl phosphate and nitro-blue tetrazolium in alkaline phosphatase buffer. Molecular weight markers and a positive control of recombinant CYP1A1 (Gentest Corporation), included in all blots, confirmed detection of 52 kDa CYP1A1 protein.
(Immunoblotting shows a protein as a band on a membrane.)

Data set [2] has as its system K-562. Kind of data set: NCI in vitro cytotoxicity assay (SRB), K-562. It counts as cell-based. The note with it: Homo sapiens, K562; 48 h exposure, sulforhodamine B assay, mean graph; read-out: Log10 GI50 (K-562) (converted). As for the experimental part:
(§1) Cell culture and drug application procedures have been described previously ([Boyd and Paull, 1995]). Briefly, cell lines were inoculated into a series of 96-well microtiter plates, with varied seeding densities depending on growth characteristics of each cell line. Following a 24 h drug free incubation, test agents were added at five 10-fold dilutions with a maximum concentration of 100 μM. Cellular protein levels were determined after 48 h drug exposure by sulphorhodamine B colorimetry.
On the technique in general: The SRB assay estimates cell density from bound dye.

The test system of data set [3] is NCI-H226. Kind of data set: NCI in vitro cytotoxicity assay (SRB), NCI-H226. The note with it: Homo sapiens, 48 h exposure, sulforhodamine B assay, mean graph, read-out: Log10 GI50 (NCI-H226) (converted). Type of data set: cell-based. As for the experimental part: as §1
In data set [4] the test system is NCIH23. Kind of data set: NCI in vitro cytotoxicity assay (SRB), NCIH23. Type of data set: cell-based. Conditions: Homo sapiens, NCI-H23; 48 h exposure, sulforhodamine B assay, mean graph; read-out: Log10 GI50 (NCIH23) (converted). As for the experimental part: as §1
Data set [5] concerns NCI-H322M. Kind of data set: NCI in vitro cytotoxicity assay (SRB), NCI-H322M. Type of data set: cell-based. Conditions: Homo sapiens, 48 h exposure, sulforhodamine B assay, mean graph, read-out: Log10 GI50 (NCI-H322M) (converted). As for the experimental part:
as §1

In data set [6] the test system is NCI-460. Kind of data set: NCI in vitro cytotoxicity assay (SRB), NCI-460. It counts as cell-based. Conditions: Homo sapiens, 48 h exposure, sulforhodamine B assay, mean graph, read-out: Log10 GI50 (NCI-460) (converted). As for the experimental part: as §1
Data set [7] deals with COLO 205. Kind of data set: NCI in vitro cytotoxicity assay (SRB), COLO 205. Conditions: Homo sapiens, 48 h exposure, sulforhodamine B assay, mean graph, read-out: Log10 GI50 (COLO 205) (converted). Type of data set: cell-based. How it is done: as §1
In data set [8] the test system is SNB-19. Kind of data set: NCI in vitro cytotoxicity assay (SRB), SNB-19. It counts as cell-based. Conditions: Homo sapiens, 48 h exposure, sulforhodamine B assay, mean graph, read-out: Log10 GI50 (SNB-19) (converted). How it is done:
as §1

Data set [9] relates to U251. As to the kind of experiment: NCI in vitro cytotoxicity assay (SRB), U251. Conditions: Homo sapiens, U-251; 48 h exposure, sulforhodamine B assay, mean graph; read-out: Log10 GI50 (U251) (converted). Type of data set: cell-based. As for the experimental part:
as §1

The test system of data set [10] is LOX IMVI. Kind of data set: NCI in vitro cytotoxicity assay (SRB), LOX IMVI. It counts as cell-based. The note with it: Homo sapiens, 48 h exposure, sulforhodamine B assay, mean graph, read-out: Log10 GI50 (LOX IMVI) (converted). As for the experimental part: as §1
In data set [11] the test system is MALME-3M. As to the kind of experiment: NCI in vitro cytotoxicity assay (SRB), MALME-3M. The note with it: Homo sapiens, 48 h exposure, sulforhodamine B assay, mean graph, read-out: Log10 GI50 (MALME-3M) (converted). Type of data set: cell-based. As for the experimental part:
as §1

The subject of data set [12] is SK-MEL-2. Kind of data set: NCI in vitro cytotoxicity assay (SRB), SK-MEL-2. The note with it: Homo sapiens, 48 h exposure, sulforhodamine B assay, mean graph, read-out: Log10 GI50 (SK-MEL-2) (converted). Type of data set: cell-based. How it is done: as §1
Data set [13] has as its system UACC-257. As to the kind of experiment: NCI in vitro cytotoxicity assay (SRB), UACC-257. It counts as cell-based. The note with it: Homo sapiens, 48 h exposure, sulforhodamine B assay, mean graph, read-out: Log10 GI50 (UACC-257) (converted). How it is done: as §1
In data set [14] the test system is OVCAR-5. As to the kind of experiment: NCI in vitro cytotoxicity assay (SRB), OVCAR-5. It counts as cell-based. Conditions: Homo sapiens, 48 h exposure, sulforhodamine B assay, mean graph, read-out: Log10 GI50 (OVCAR-5) (converted). As for the experimental part: as §1
Data set [15] relates to SK-OV-3. As to the kind of experiment: NCI in vitro cytotoxicity assay (SRB), SK-OV-3. Type of data set: cell-based. Conditions: Homo sapiens, 48 h exposure, sulforhodamine B assay, mean graph, read-out: Log10 GI50 (SK-OV-3) (converted). How it is done: as §1
In data set [16] the test system is 786-0. As to the kind of experiment: NCI in vitro cytotoxicity assay (SRB), 786-0. Type of data set: cell-based. Conditions: Homo sapiens, 48 h exposure, sulforhodamine B assay, mean graph, read-out: Log10 GI50 (786-0) (converted). As for the experimental part: as §1
In data set [17] the test system is A498. As to the kind of experiment: NCI in vitro cytotoxicity assay (SRB), A498. Type of data set: cell-based. The note with it: Homo sapiens, 48 h exposure, sulforhodamine B assay, mean graph, read-out: Log10 GI50 (A498) (converted). As for the experimental part:
as §1

Data set [18] concerns RXF 393. As to the kind of experiment: NCI in vitro cytotoxicity assay (SRB), RXF 393. The note with it: Homo sapiens, 48 h exposure, sulforhodamine B assay, mean graph, read-out: Log10 GI50 (RXF 393) (converted). It counts as cell-based. As for the experimental part: as §1
The test system of data set [19] is TK-10. Kind of data set: NCI in vitro cytotoxicity assay (SRB), TK-10. Conditions: Homo sapiens, 48 h exposure, sulforhodamine B assay, mean graph, read-out: Log10 GI50 (TK-10) (converted). Type of data set: cell-based. How it is done:
as §1

Data set [20] deals with UO 31. Kind of data set: NCI in vitro cytotoxicity assay (SRB), UO 31. Type of data set: cell-based. Conditions: Homo sapiens, 48 h exposure, sulforhodamine B assay, mean graph, read-out: Log10 GI50 (UO 31) (converted). How it is done: as §1
The subject of data set [21] is MDA-MB-231/ATCC. As to the kind of experiment: NCI in vitro cytotoxicity assay (SRB), MDA-MB-231/ATCC. It counts as cell-based. The note with it: Homo sapiens, 48 h exposure, sulforhodamine B assay, mean graph, read-out: Log10 GI50 (MDA-MB-231/ATCC) (converted). As for the experimental part:
as §1

Data set [22] relates to MDA-MB-435. As to the kind of experiment: NCI in vitro cytotoxicity assay (SRB), MDA-MB-435. It counts as cell-based. Conditions: Homo sapiens, 48 h exposure, sulforhodamine B assay, mean graph, read-out: Log10 GI50 (MDA-MB-435) (converted). As for the experimental part:
as §1

In the case of `Cc1cc(-c2nc3cc(F)ccc3s2)ccc1NC(=O)[C@@H](N)CCCCN` [Compound 2b], in data set [1], the “CYP1A1 protein expression (Western blot)” value is “not induced”. The GI50 in data set [2] is 2.29 µM; in [3], 0.155 µM; in [4] it was 6.17 µM; in data set [5] it was 3.09 µM; in data set [6], 0.0708 µM; in data set [7], 3.31 µM. Besides, the GI50 in data set [8] was 13.5 µM; in [9], 2.14 µM; in data set [10], 2 µM; in data set [11] it was 17.4 µM; in data set [12], 2.51 µM; in data set [13], 15.8 µM. Further, the GI50 in data set [14] is 0.126 µM; in data set [15], 16.2 µM; in [16], 4.07 µM; in data set [17] it was 12.6 µM; in data set [18] it was 7.24 µM; in [19], 0.0174 µM. Further, the GI50 was 3.09 µM in [20], 3.55 µM in [21] and 1.91 µM in data set [22].

For `Cc1cc(-c2nc3cc(F)ccc3s2)ccc1N` [Compound 2, 2-(4-Amino-3-methylphenyl)-5-fluorobenzothiazole], the “CYP1A1 protein expression (Western blot)” value in data set [1] was “not induced”. Further, the GI50 in [2] is over 100 µM; in [3] it was under 0.01 µM; in data set [4] it was 51.3 µM; in data set [5], 11 µM; in data set [6], under 0.01 µM; in [7] it was 66.1 µM. The GI50 in [8] is 26.3 µM; in data set [9] it was 41.7 µM; in data set [10], over 100 µM; in [11] it was 91.2 µM; in [12] it was over 100 µM; in data set [13] it was 77.6 µM. Moreover, the GI50 in data set [14] is 0.0107 µM; in data set [15], 83.2 µM; in data set [16], 24 µM; in data set [17], 2.82 µM; in data set [18], 32.4 µM; in data set [19], under 0.01 µM. The GI50 in [20] was 85.1 µM; in data set [21], 17.4 µM; in data set [22], over 100 µM.
